Test results taken from patent US11358954B2, “PPAR agonists, compounds, pharmaceutical compositions, and methods of use thereof” (Mitobridge, Inc., priority 2016, dated 2022).
pEC50: −log10 of the molar value.

What was measured:
[1] = Pharmacokinetic screening in male Wistar rats; settings: in vivo, rat; for C0: read-out: IV PK C0; for clearance: read-out: IV PK Cl; for Vd: read-out: IV PK Vss; for bioavailability: 3.0 mpk po vs 1.0 mpk iv, read-out: Oral PK % F; for Cmax: read-out: Oral PK Cmax; for Tmax: read-out: Oral PK T max
Description: (§1) In this example, the PK profile of several PPARδ agonists disclosed herein in male CD-1 mice or Wistar rats was determined by the methods disclosed in Boxenbaum H. (1980) Interspecies variation in liver weight, hepatic blood flow and antipyrine intrinsic clearance in extrapolation of Benzodiazepines and phenytoin. J. Pharmacokinet Biopharm 8: 165-176. Similar methods can be used to analyze other compounds provided herein.
(§2) All compounds were separately administered to CD-1 mice at 1 mg/kg iv or 3 mg/kg po. The compounds were separately administered to male Wistar rats 1 mg/kg iv or 3 mg/kg po. The species M refers to mouse and R reports to rat in the following table. NA means not available.

[2] = Pharmacokinetic screening in male CD-1 mice; assay type: in vivo; settings: mouse; for C0: read-out: IV PK C0; for Vd: read-out: IV PK Vss; for bioavailability: read-out: Oral PK % F; for Cmax: read-out: Oral PK Cmax; for Tmax: read-out: Oral PK T max
Description: as §1, §2

hERG = target: T1, hERG (Homo sapiens, UniProt Q12809); assay: hERG inhibition screen (patch clamp, peak hERG tail current); assay type: cell-based; settings: for inhibition at 10 µM: human
T1 construct: expressed in transfected cells
Description: Cells were cultured in DMEM/F-12 medium supplemented with 10% fetal bovine serum and 400 μg/mL Geneticin. Cells were grown in 75 cm tissue culture flasks maintained at 37° C. with 5% CO2 and passaged every 3 days using 0.05/0.02% Trypsin/EDTA (confluency of <80%). For the purpose of electrophysiology, cells were seeded in 25 cm2 tissue culture flasks. Three day old cells were harvested using Trypsin/EDTA (0.025/0.01%) as detaching agent and resuspended in external recording solution.
Preweighed quantity of test item was dissolved in tissue culture grade DMSO to prepare a primary stock solution. The strength of the primary stock was 1000× of the intended highest test concentration. Subsequently, working stock solutions of appropriate strengths was prepared by dilution of primary stock with DMSO. The stock solutions were aliquoted into eppendorff tubes and stored at −20° C. freezer (<0° C.) until use. On the day of experiment, aliquots were thawed and used for preparing the assay solution (test solution).
Test solutions were prepared fresh by adding 4 μL of stock solution in to 3996 μL external recording solution such that the final DMSO concentration in the assay solution was 0.1% v/v. Upon addition, solution was inspected carefully against light by naked eye for any indications of precipitation.
Electrophysiological Procedures: • Electrophysiology Setup: Instrument: Port-A-Patch • Patch clamp type: Semiautomatic • Manufacturer: Nanion technologies, GmBH Germany • Electrophysiology chips: Glasscoated NPC-1 chips • Recording Condition: Room temperature • Compound Addition Protocol: Manual addition—20 μL of solution was added on one side of the chip, followed by withdrawal of 20 μL from the other side. This way of addition and withdrawal was repeated at least 4-5 times to ensure actual test concentration is reached. • Test Concentration Exposure Period: Cells were exposed to each test concentration for 3 min or till a steady state block was reached • Voltage Protocol: −40 mV subtraction pulse for 0.5 sec; +40 mV activation pre-pulse for 2 sec; −40 mV test pulse for 2 sec and −80 mV holding potential repeated at every 10 sec • Assay end point: Peak hERG tail current recorded when the voltage was reduced from +40 mV to −40 mV.
The steady state current after the application of 0.1% DMSO was considered as baseline (control current). Steady state current obtained at the end of each test concentration addition was used to calculate the % hERG current inhibited at each concentration. Any rundown due to vehicle addition was corrected to calculate % hERG current inhibition. Each cell acted as its own control. Average current of last 3-5 sweeps of acceptable quality was considered for calculation of % inhibition. Sweeps with artifacts and noise were omitted while calculation.

Human PPARδ = target: T2, Human PPARδ (Homo sapiens, UniProt Q03181); assay: PPARδ activity screen (GAL4-PPARδ LBD luciferase transactivation in CV-1 cells); assay type: cell-based; settings: 24 h compound treatment, luciferase reporter
T2 construct: (PPARδ amino acid 128 to C-terminus); expressed in transfected cells; host or cells: CV-1 cells
T2 sequence (Q03181 128-441 limits assumed): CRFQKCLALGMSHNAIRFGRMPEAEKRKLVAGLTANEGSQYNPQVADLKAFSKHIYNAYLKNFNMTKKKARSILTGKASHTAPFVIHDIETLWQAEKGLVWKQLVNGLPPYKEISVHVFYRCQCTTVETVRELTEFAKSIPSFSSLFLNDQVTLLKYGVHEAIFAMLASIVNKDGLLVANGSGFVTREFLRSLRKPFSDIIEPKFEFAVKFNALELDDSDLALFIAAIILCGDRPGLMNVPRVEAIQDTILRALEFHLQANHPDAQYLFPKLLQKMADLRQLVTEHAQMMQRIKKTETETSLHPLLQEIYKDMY
Description: CV-1 cells were grown in DMEM+10% charcoal stripped FCS. Cells were seeded into 384-well plates the day before transfection to give a confluency of 50-80% at transfection. A total of […] containing 0.64 micrograms pCMX-PPARDelta LBD, 0.1 micrograms pCMXβGal, 0.08 micrograms pGLMH2004 reporter and 0.02 micrograms pCMX empty vector was transfected per well using FuGene transfection reagent according to the manufacturer's instructions (Roche). Cells were allowed to express protein for 48 h followed by addition of compound.
Human PPARδ was used to PCR amplify the PPARδ LBD. […] Ensuing fusions were verified by sequencing.
All compounds were dissolved in DMSO and diluted 1:1000 upon addition to the cells. Compounds were tested in quadruple in concentrations ranging from 0.001 to 100 μM. Cells were treated with compound for 24 h followed by luciferase assay. […]
Medium including test compound was aspirated and washed with PBS. […] Light emission was quantified by counting on a Perkin Elmer Envision reader. […] Beta-galactosidase assays were performed in the microwell plates using a kit from Promega and read in a Perkin Elmer Envision reader. […]
The activity of a compound is calculated as fold induction compared to an untreated sample. […] EC50 values were calculated via non-linear regression using GraphPad PRISM (GraphPad Software, San Diego, Calif.).

[3] = 1 mg/kg, 1.0 mpk iv, read-out: IV PK AUC (0-inf)
[4] = 1 mg/kg, 1.0 mpk iv, read-out: IV PK Beta T½ (converted)
[5] = 3 mg/kg, 3.0 mpk po, read-out: Oral PK AUC (0-inf)
[6] = male, CD-1, in vivo, 1 mg/kg, 1.0 mpk iv, read-out: IV PK AUC (0-inf)
[7] = male, CD-1, in vivo, 1 mg/kg, 1.0 mpk iv
[8] = male, CD-1, in vivo, 3 mg/kg, 3.0 mpk po vs 1.0 mpk iv
[9] = male, CD-1, in vivo, 3 mg/kg, 3.0 mpk po, read-out: Oral PK AUC (0-inf)
[10] = male, CD-1, in vivo, 3 mg/kg, 3.0 mpk po
[11] = male, CD-1, in vivo, 3 mg/kg, 3.0 mpk po, read-out: Oral PK T½ (converted)
[12] = 3 mg/kg, 3.0 mpk po, read-out: Oral PK T½ (converted)
[13] = male, CD-1, in vivo, 1 mg/kg, 1.0 mpk iv, read-out: IV PK Beta T½ (converted)

T1 sequence (Q12809 whole entry): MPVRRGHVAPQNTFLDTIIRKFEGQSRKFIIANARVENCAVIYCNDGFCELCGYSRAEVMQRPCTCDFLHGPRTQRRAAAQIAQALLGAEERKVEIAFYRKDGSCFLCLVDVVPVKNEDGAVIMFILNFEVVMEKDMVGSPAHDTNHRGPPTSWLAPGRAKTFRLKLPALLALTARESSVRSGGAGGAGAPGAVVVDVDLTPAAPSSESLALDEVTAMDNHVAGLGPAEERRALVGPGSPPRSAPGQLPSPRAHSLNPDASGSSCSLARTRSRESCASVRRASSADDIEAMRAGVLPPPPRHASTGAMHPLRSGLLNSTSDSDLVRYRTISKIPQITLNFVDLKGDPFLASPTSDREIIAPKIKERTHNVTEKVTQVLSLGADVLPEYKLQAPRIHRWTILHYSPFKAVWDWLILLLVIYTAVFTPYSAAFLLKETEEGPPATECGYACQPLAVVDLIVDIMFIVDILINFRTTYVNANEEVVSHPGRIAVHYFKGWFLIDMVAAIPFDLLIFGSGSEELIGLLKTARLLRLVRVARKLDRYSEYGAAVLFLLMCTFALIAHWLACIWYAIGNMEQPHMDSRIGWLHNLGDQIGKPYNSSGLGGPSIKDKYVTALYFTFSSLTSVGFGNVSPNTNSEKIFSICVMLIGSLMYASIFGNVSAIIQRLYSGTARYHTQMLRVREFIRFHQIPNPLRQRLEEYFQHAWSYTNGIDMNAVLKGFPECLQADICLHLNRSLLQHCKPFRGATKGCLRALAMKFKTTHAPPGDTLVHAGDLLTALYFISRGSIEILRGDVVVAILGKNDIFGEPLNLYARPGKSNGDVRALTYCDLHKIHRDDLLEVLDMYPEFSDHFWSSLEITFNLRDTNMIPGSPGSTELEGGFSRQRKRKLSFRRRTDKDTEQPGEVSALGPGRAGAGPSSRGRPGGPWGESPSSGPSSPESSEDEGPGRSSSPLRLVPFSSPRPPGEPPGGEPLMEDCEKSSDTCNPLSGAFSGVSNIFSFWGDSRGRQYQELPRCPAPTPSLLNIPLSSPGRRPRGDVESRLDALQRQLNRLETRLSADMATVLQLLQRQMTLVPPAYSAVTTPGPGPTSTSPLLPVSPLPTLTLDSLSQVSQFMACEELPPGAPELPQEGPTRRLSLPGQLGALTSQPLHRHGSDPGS

Structure (SMILES): C[C@H](CCCOc1ccccc1Cn1c(C(F)(F)F)cnc1-c1ccc(C(F)(F)F)cc1)CC(=O)O [Compound 2a, (3R)-3-methyl-6-(2-((5-(trifluoromethyl)-2-(4-(trifluoromethyl)phenyl)-1H-imidazol-1-yl)methyl)phenoxy)hexanoic acid]
- AUC(0-inf) [1, 3]: 5040 ng·h/mL
- half-life [1, 4]: 7.1 h
- C0 ([1]; 1 mg/kg, 1.0 mpk iv): 1530 ng/mL
- clearance ([1]; 1 mg/kg, 1.0 mpk iv): 3.8 mL/min/kg
- Vd ([1]; 1 mg/kg, 1.0 mpk iv): 1.7 L/kg
- bioavailability ([1]; 3 mg/kg): 100%
- AUC(0-inf) [1, 5]: 16100 ng·h/mL
- Cmax ([1]; 3 mg/kg, 3.0 mpk po): 1200 ng/mL
- Tmax ([1]; 3 mg/kg, 3.0 mpk po): 2.8 h
- AUC(0-inf) [2, 6]: 3310 ng·h/mL
- C0 [2, 7]: 740 ng/mL
- Vd [2, 7]: 1.9 L/kg
- bioavailability [2, 8]: 70%
- AUC(0-inf) [2, 9]: 6960 ng·h/mL
- Cmax [2, 10]: 1260 ng/mL
- Tmax [2, 10]: 0.3 h
- half-life [2, 11]: 3.8 h
- IV PK Beta T½ ([2]; 1.0 mpk iv): 5.8 h
- IV PK Cl ([2]; 1.0 mpk iv): 5.0 mL/min/kg
- inhibition at 10 µM (hERG): 6%

Structure (SMILES): O=C(O)CCCCCOc1ccccc1Cn1c(C(F)(F)F)cnc1-c1ccc(-c2ccco2)cc1 [Compound 2h, 6-(2-((2-(4-(furan-2-yl)phenyl)-5-(trifluoromethyl)-1H-imidazol-1-yl)methyl)phenoxy)hexanoic acid]
- pEC50 (Human PPARδ): 8.70
- inhibition at 10 µM (hERG): 7%

Structure (SMILES): C[C@H](CCCOc1ccccc1Cn1c(Cl)cnc1-c1ccc(C(F)(F)F)cc1)CC(=O)O [Compound 2b, (R)-6-(2-((5-chloro-2-(4-(trifluoromethyl)phenyl)-1H-imidazol-1-yl)methyl)phenoxy)-3-methylhexanoic acid]
- AUC(0-inf) [1, 3]: 2970 ng·h/mL
- half-life [1, 4]: 4.8 h
- C0 ([1]; 1 mg/kg, 1.0 mpk iv): 2120 ng/mL
- clearance ([1]; 1 mg/kg, 1.0 mpk iv): 5.8 mL/min/kg
- Vd ([1]; 1 mg/kg, 1.0 mpk iv): 1.2 L/kg
- bioavailability ([1]; 3 mg/kg): 87%
- AUC(0-inf) [1, 5]: 7790 ng·h/mL
- Cmax ([1]; 3 mg/kg, 3.0 mpk po): 2380 ng/mL
- Tmax ([1]; 3 mg/kg, 3.0 mpk po): 0.3 h
- half-life [1, 12]: 4.1 h
- AUC(0-inf) [2, 6]: 1060 ng·h/mL
- half-life [2, 13]: 3.5 h
- C0 [2, 7]: 810 ng/mL
- Vd [2, 7]: 3.1 L/kg
- bioavailability [2, 8]: 100%
- AUC(0-inf) [2, 9]: 3880 ng·h/mL
- Cmax [2, 10]: 2950 ng/mL
- Tmax [2, 10]: 0.5 h
- half-life [2, 11]: 4.3 h
- IV PK Cl ([2]; 1.0 mpk iv): 16 mL/min/kg
- hERG % Inhibition at 10 μM (hERG): 3.00%

Structure (SMILES): C[C@H](CCCOc1ccccc1Cn1c(C(F)(F)F)cnc1-c1ccc(-c2ccco2)cc1)CC(=O)O [Compound 2i, (3R)-6-(2-((2-(4-(furan-2-yl)phenyl)-5-(trifluoromethyl)-1H-imidazol-1-yl)methyl)phenoxy)-3-methylhexanoic acid]
- hERG % Inhibition at 10 μM (hERG): 2.30%

Structure (SMILES): C[C@H](CCCOc1ccccc1Cn1c(C(F)(F)F)cnc1-c1ccc(OC(F)(F)F)cc1)CC(=O)O [Compound 2g, (3R)-3-methyl-6-(2-((2-(4-(trifluoromethoxy)phenyl)-5-(trifluoromethyl)-1H-imidazol-1-yl)methyl)phenoxy)hexanoic acid]
- hERG % Inhibition at 10 μM (hERG): 2.00%

Structure (SMILES): C[C@H](CCCOc1ccccc1Cn1c(C(F)(F)F)cnc1-c1ccc(Cl)cc1)CC(=O)O [Compound 2d, (3R)-6-(2-((2-(4-chlorophenyl)-5-(trifluoromethyl)-1H-imidazol-1-yl)methyl)phenoxy)-3-methylhexanoic acid]
- AUC(0-inf) [2, 6]: 5620 ng·h/mL
- half-life [2, 13]: 6.3 h
- C0 [2, 7]: 1720 ng/mL
- clearance ([2]; male, CD-1, in vivo, 1 mg/kg, 1.0 mpk iv, read-out: IV PK Cl): 5.4 mL/min/kg
- Vd [2, 7]: 1.4 L/kg
- bioavailability [2, 8]: 61%
- AUC(0-inf) [2, 9]: 5620 ng·h/mL
- Cmax [2, 10]: 2830 ng/mL
- Tmax [2, 10]: 0.3 h
- half-life [2, 11]: 10 h
- hERG % Inhibition at 10 μM (hERG): 5.00%

Structure (SMILES): C[C@H](CCCOc1ccccc1Cn1c(C(F)(F)F)cnc1-c1ccc(F)cc1)CC(=O)O [Compound 2e, (3R)-6-(2-((2-(4-fluorophenyl)-5-(trifluoromethyl)-1H-imidazol-1-yl)methyl)phenoxy)-3-methylhexanoic acid]
- pEC50 (Human PPARδ): 7.60

Structure (SMILES): C[C@H](CCCOc1ccccc1Cn1c(C(F)(F)F)cnc1-c1ccc(C#N)cc1)CC(=O)O [Compound 2f, (R)-6-(2-((2-(4-cyanophenyl)-5-(trifluoromethyl)-1H-imidazol-1-yl)methyl)phenoxy)-3-methylhexanoic acid]
- AUC(0-inf) [1, 3]: 4090 ng·h/mL
- C0 ([1]; 1 mg/kg, 1.0 mpk iv): 1820 ng/mL
- clearance ([1]; 1 mg/kg, 1.0 mpk iv): 3 mL/min/kg
- Vd ([1]; 1 mg/kg, 1.0 mpk iv): 3.9 L/kg
- bioavailability ([1]; 3 mg/kg): 100%
- AUC(0-inf) [1, 5]: 14900 ng·h/mL
- Cmax ([1]; 3 mg/kg, 3.0 mpk po): 4330 ng/mL
- Tmax ([1]; 3 mg/kg, 3.0 mpk po): 0.3 h
- half-life [1, 12]: 10.3 h
- AUC(0-inf) [2, 6]: 6730 ng·h/mL
- half-life [2, 13]: 4.1 h
- C0 [2, 7]: 2450 ng/mL
- Vd [2, 7]: 0.6 L/kg
- AUC(0-inf) [2, 9]: 14700 ng·h/mL
- Cmax [2, 10]: 4240 ng/mL
- Tmax [2, 10]: 0.3 h
- half-life [2, 11]: 4.9 h
- IV PK Cl ([2]; 1.0 mpk iv): 2.5 mL/min/kg
- Oral PK % F ([2]; 3.0 mpk po vs 1.0 mpk iv): 73%
- inhibition at 10 µM (hERG): 3.5%

Structure (SMILES): C[C@H](CCCOc1ccccc1Cn1c(C#N)cnc1-c1ccc(C(F)(F)F)cc1)CC(=O)O [Compound 2c, (3R)-6-(2-((5-cyano-2-(4-(trifluoromethyl)phenyl)-1H-imidazol-1-yl)methyl)phenoxy)-3-methylhexanoic acid]
- hERG % Inhibition at 10 μM (hERG): 2.50%
